Test results taken from patent US20090291928A1, “COMPOSITION FOR AMELIORATION/PREVENTION OF ADVERSE SIDE EFFECT IN STEROID THERAPY” (AJINOMOTO CO., INC., priority 2006, published 2009).

Test system: dexamethasone administered rat
Experiment: Muscular atrophy prophylactic effect of BCAA in dexamethasone administered rat (Example 1)
Assay type: in vivo
Settings: effect of dexamethasone administration itself, 600 μg/kg i.p. 5 days
Procedure: Dexamethasone (600 μg/kg) was intraperitoneally administered to rats (SD; 10-11-week-old) for 5 consecutive days. An isoleucine, leucine and valine (weight ratio 1:2:1.2) blend (BCAA) administration group was orally administered with 0.75 g/kg of BCAA above simultaneously for 5 consecutive days. A vehicle group was orally administered with distilled water consecutively in the same manner.
On day 5, the rats were autopsied and analyzed for muscular strength function evaluation, blood glucose level and plasma insulin level using a feed intake, body weight profile, muscle weight, grip strength measurement apparatus.
As the control group, pair-feeding normal rats were used.

blood glucose level (SD rats (FIG. 4)): increased | insulin level (SD rats (FIG. 5)): increased
Structure (SMILES): C[C@@H]1C[C@H]2[C@@H]3CCC4=CC(=O)C=C[C@]4(C)[C@@]3(F)[C@@H](O)C[C@]2(C)[C@@]1(O)C(=O)CO [dexamethasone]
